Assay results as given in patent US11702429B2, “mTORC modulators and uses thereof” (Aeovian Pharmaceuticals, Inc., priority 2019, dated 2023).
Like-named read-outs stand apart in the source and are kept apart here.

Legend:
mTORC1 = target: T1, mTORC1 (Homo sapiens, UniProt P42345+P62942); assay: Inhibition assay for mTORC1: phosphorylation of pS6K at Thr389, AlphaLISA in PC3 cells; type: cell-based; details: for IC50: read-out: pIC50 mTORC1 (converted)
T1 construct: endogenous in cells; host or cells: PC3 cells (human prostate adenocarcinoma)
Description: (§1) The IC50s of the inhibition of mTORC1 and mTORC2 were determined in vitro by determining the phosphorylation of pS6K at position Thr389 (mTORC1 inhibition) and pAkt at Ser473 (mTORC2 inhibition). In vitro studies were performed with AlphaLISA® technology using PC3 cells (Prostate Adenocarcinoma; Human (Homo sapiens)). The cells were seeded in 96 well plates and were treated for 24 hours with the different compounds. […] All analysis were performed using GraphPad Prism 7.0 (GraphPad Software, San Diego, USA).

mTORC2 = target: T2, mTORC2 (Homo sapiens, UniProt P42345+P62942); assay: Inhibition assay for mTORC2: phosphorylation of pAkt at Ser473, AlphaLISA in PC3 cells; type: cell-based; details: for IC50: read-out: pIC50 mTORC2 (converted)
T2 construct: endogenous in cells; host or cells: PC3 cells (human prostate adenocarcinoma)
Description: as §1

[1] = PC3 cells, treated 24 hours, pS6K Thr389, AlphaLISA, C16 diastereomer mixtures not separated
[2] = PC3 cells, treated 24 hours, pAkt Ser473, AlphaLISA, C16 diastereomer mixtures not separated

T2 sequence (P62942 2-108 limits assumed, other chains not shown): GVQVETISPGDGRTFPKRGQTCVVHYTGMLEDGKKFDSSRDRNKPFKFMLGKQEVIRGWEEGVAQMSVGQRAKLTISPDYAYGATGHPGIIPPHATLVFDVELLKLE

CO[C@@H]1C[C@H](C[C@@H](C)[C@@H]2CC(=O)[C@H](C)/C=C(\C)[C@@H](O)[C@@H](OC)C(=O)[C@H](C)C[C@H](C)/C=C/C=C/C=C(\C)C(OCCO)C[C@@H]3CC[C@@H](C)[C@@](O)(O3)C(=O)C(=O)N3CCCC[C@H]3C(=O)O2)CC[C@H]1OCCCN1CC2(COC2)C1 (mixture of isomers) [Compound 78]
IC50 (mTORC1; [1]): 0.316 to 3.16 nM
IC50 (mTORC2; [2]): > 10000 nM

COC1C[C@@H]2CC[C@@H](C)[C@@](O)(O2)C(=O)C(=O)N2CCCCC2C(=O)O[C@H]([C@H](C)C[C@@H]2CC[C@@H](OC(=O)NCCN3CCOCC3)[C@H](OC)C2)CC(=O)[C@H](C)/C=C(\C)[C@@H](O)[C@@H](OC)C(=O)[C@H](C)C[C@H](C)/C=C/C=C/C=C/1C (some centres unmarked) [Compound 336]
IC50 (mTORC1): < 0.316 nM
IC50 (mTORC2): < 1000 nM

COC1C[C@@H]2CC[C@@H](C)[C@@](O)(O2)C(=O)C(=O)N2CCCCC2C(=O)O[C@H]([C@H](C)C[C@@H]2CC[C@@H](OC(=O)N(C)CCN3CCOCC3)[C@H](OC)C2)CC(=O)[C@H](C)/C=C(\C)[C@@H](O)[C@@H](OC)C(=O)[C@H](C)C[C@H](C)/C=C/C=C/C=C/1C (some centres unmarked) [Compound 356]
IC50 (mTORC1): < 0.316 nM
IC50 (mTORC2): < 1000 nM

CO[C@@H]1C[C@H](C[C@@H](C)[C@@H]2CC(=O)[C@H](C)/C=C(\C)[C@@H](O)[C@@H](OC)C(=O)[C@H](C)C[C@H](C)/C=C/C=C/C=C(\C)C(OCCO)C[C@@H]3CC[C@@H](C)[C@@](O)(O3)C(=O)C(=O)N3CCCCC3C(=O)O2)CC[C@H]1OCCCN1C[C@@H](C)O[C@@H](C)C1 (some centres unmarked) [Compound 18]
pIC50 mTORC1 (mTORC1; [1]): A (pIC50 for mTORC1 of >9.5 as A)
pIC50 mTORC2 (mTORC2; [2]): A (PIC50 for mTORC2 of <5 as A)

COC1C[C@@H]2CC[C@@H](C)[C@@](O)(O2)C(=O)C(=O)N2CCCCC2C(=O)O[C@H]([C@H](C)C[C@@H]2CC[C@@H](OCCCOCCO)[C@H](OC)C2)CC(=O)[C@H](C)/C=C(\C)[C@@H](O)[C@@H](OC)C(=O)[C@H](C)C[C@H](C)/C=C/C=C/C=C/1C (some centres unmarked) [Compound 352]
pIC50 mTORC1 (mTORC1; Rapamycin analogs substituted at C40, pS6K Thr389, PC3 cells, 24 hours treatment): A (pIC50 for mTORC1 of >9.5 as A)
pIC50 mTORC2 (mTORC2; Rapamycin analogs substituted at C40, pAkt Ser473, PC3 cells, 24 hours treatment): C (greater than 6 as C)

COC1C[C@@H]2CC[C@@H](C)[C@@](O)(O2)C(=O)C(=O)N2CCCCC2C(=O)O[C@H]([C@H](C)C[C@@H]2CC[C@@H](OC(=O)NCCCN3CCOCC3)[C@H](OC)C2)CC(=O)[C@H](C)/C=C(\C)[C@@H](O)[C@@H](OC)C(=O)[C@H](C)C[C@H](C)/C=C/C=C/C=C/1C (some centres unmarked) [Compound 344]
IC50 (mTORC1): < 0.316 nM
IC50 (mTORC2): < 1000 nM

COCCOCCNC(=O)O[C@@H]1CC[C@@H](C[C@@H](C)[C@@H]2CC(=O)[C@H](C)/C=C(\C)[C@@H](O)[C@@H](OC)C(=O)[C@H](C)C[C@H](C)/C=C/C=C/C=C(\C)C(OC)C[C@@H]3CC[C@@H](C)[C@@](O)(O3)C(=O)C(=O)N3CCCCC3C(=O)O2)C[C@H]1OC (some centres unmarked) [Compound 346]
IC50 (mTORC1): < 0.316 nM
IC50 (mTORC2): < 1000 nM

CO[C@@H]1C[C@H](C[C@@H](C)[C@@H]2CC(=O)[C@H](C)/C=C(\C)[C@@H](O)[C@@H](OC)C(=O)[C@H](C)C[C@H](C)/C=C/C=C/C=C(\C)C(OCCCO)C[C@@H]3CC[C@@H](C)[C@@](O)(O3)C(=O)C(=O)N3CCCCC3C(=O)O2)CC[C@H]1O (some centres unmarked) [Compound 210]
IC50 (mTORC1): 0.316 to 3.16 nM
IC50 (mTORC2): < 1000 nM

COC1C[C@@H]2CC[C@@H](C)[C@@](O)(O2)C(=O)C(=O)N2CCCCC2C(=O)O[C@H]([C@H](C)C[C@@H]2CC[C@@H](OC(=O)CN(C)C)[C@H](OC)C2)CC(=O)[C@H](C)/C=C(\C)[C@@H](O)[C@@H](OC)C(=O)[C@H](C)C[C@H](C)/C=C/C=C/C=C/1C (some centres unmarked) [Compound 343]
IC50 (mTORC1): < 0.316 nM
IC50 (mTORC2): < 1000 nM

COCCOC1C[C@@H]2CC[C@@H](C)[C@@](O)(O2)C(=O)C(=O)N2CCCC[C@H]2C(=O)O[C@H]([C@H](C)C[C@@H]2CC[C@@H](OCCN3CC4(COC4)C3)[C@H](OC)C2)CC(=O)[C@H](C)/C=C(\C)[C@@H](O)[C@@H](OC)C(=O)[C@H](C)C[C@H](C)/C=C/C=C/C=C/1C (mixture of isomers) [Compound 44]
IC50 (mTORC1; [1]): < 0.316 nM
IC50 (mTORC2; [2]): 1000 to 10000 nM
